{
  "source": "patent US12048742B2",
  "about": "“Hepatitis C virus peptide compositions and methods of use thereof” (The Governors of the University of Alberta, priority 2018, dated 2024)",
  "key": {"[1]": {"assay": "Solubility of T-cell epitope polypeptides in E1E2 buffer (Protocol 1)", "assay_type": "physicochemical", "conditions": "for solubility in E1E2 buffer (in words): Protocol 1, 1 mg/ml in E1E2 buffer, Nanodrop, FIG. 6, estimates based on A280 nm reading; for solubility: E1E2 buffer (10 mM sodium citrate, 250 mM NaCl, 1 mM EDTA, 0.1% TWEEN 80, pH 6.0), without adding dimethylsulfoxide, read-out: soluble in E1E2 buffer at a concentration of", "description": "For example, the peptides TP35-NS3 and TP50C are soluble in E1E2 buffer at a concentration of at least 1 mg/ml. The peptides TP35-NS3 and TP50C are soluble in E1E2 buffer at a concentration of at least 1 mg/ml, without the need for adding dimethylsulfoxide (DMS). In some cases, a T-cell epitope polypeptide suitable for inclusion in a composition of the present disclosure is soluble in E1E2 buffer at a concentration of at least 25 μg/ml, at least 30 μg/ml, at least 35 µg/ml, at least 50 μg/ml, at least 75 μg/ml, at least 100 μg/ml, at least 250 μg/ml, at least 500 µg/ml, at least 750 μg/ml, or at least 1 mg/ml.\nProtocol 1 The solubility of the T-cell epitope polypeptides in E1E2 buffer was determined. E1E2 buffer: 10 mM sodium citrate, 250 mM NaCl, 1 mM ethylenediaminetetraacetic acid (EDTA), 0.1% non-ionic detergent TWEEN® 80, pH 6.0. Lyophilized T-cell epitope polypeptides were individually added to E1E2 buffer at a final concentration of 1 mg T-cell epitope polypeptide per ml E1E2 buffer, to generate T-cell epitope polypeptide/E1E2 solutions. The T-cell epitope polypeptide/E1E2 solutions were vortexed for 3 seconds. The T-cell epitope polypeptide/E1E2 solutions were then centrifuged at 10,000×g for 30 seconds. […] After centrifugation, the concentration of peptides was measured using Nanodrop (Thermo Fisher).\nSolubility values shown in FIG. 6 are estimates based on A280 nm reading."}, "FIG. 6": {"assay": "FIG. 6", "from_the_text": "Table printed on a drawing sheet, FIG. 6\nThe patent's description of the figure: FIG. 6 provides the solubility of various T-cell epitope polypeptides in an aqueous buffer. TP35-NS3: SEQ ID NO:133; TP35-NS3(Lys)3: SEQ ID NO:302; TP42: SEQ ID NO:228; TP45 (C-terminal CNV replaced with KKK): SEQ ID NO:248; TP48: SEQ ID NO:254; TP48(Lys)3: SEQ ID NO:257; and TP50-C: SEQ ID NO:148.\nFirst reader's note: Blanks inside the sequences only mark line breaks within the printed cell."}, "[2]": {"assay": "Solubility of reconstituted lyophilized peptides (Protocol 3)", "assay_type": "physicochemical", "conditions": "Protocol 3, reconstituted in E1E2 buffer, E1E2 buffer without Tween, or water; shaking 2 h 30 min at room temperature; FIG. 13", "description": "Protocol 3 TP42, TP45(Lys)3, and TP48 were lyophilized. The lyophilized peptides were reconstituted in: i) E1E2 buffer; or ii) E1E2 buffer without Tween; or iii) water. The reconstituted peptide solutions were vigorously vortexed for 20 seconds. After vortexing, the peptide solutions were incubated at room temperature with continuous shaking at 300 rpm for 2 hours 30 minutes. Afterwards, peptide solutions were centrifuged at 5000×g for 1 minute. After centrifugation, the concentration of the peptides in the supernatant was measured."}, "[3]": {"assay": "TP42-2: […] MW= 4543 g/mol; EC= 3105 (secreted protein)", "description": "Table printed on a drawing sheet, FIG. 27\nTitle: TP42-2: […] MW= 4543 g/mol; EC= 3105 (secreted protein)\nThe patent's description of the figure: FIG. 27 depicts solubility data for a TP33 T-cell epitope polypeptide (SEQ ID NO:279) and a TP42-2 T-cell epitope polypeptide (SEQ ID NO:291).\nFirst reader's note: The sequence, MW and EC of TP42-2 are printed above the table; each row is one solution in which solubility was tested."}},
  "note": "Where “and” joins values, the source holds several entries; their conditions need not be identical. Identical values can stand only once. No end group written: not given here.",
  "data": [
    {"compound": "CC[C@H](C)[C@H](NC(=O)[C@@H](NC(=O)[C@H](CO)NC(=O)[C@H](CC(=O)O)NC(=O)[C@H](Cc1ccccc1)NC(=O)[C@H](CC(=O)O)NC(=O)CNC(=O)[C@@H](NC(=O)[C@H](Cc1ccccc1)NC(=O)CNC(=O)[C@@H](NC(=O)[C@H](CCSC)NC(=O)[C@H](CC(C)C)NC(=O)[C@H](C)NC(=O)[C@H](CC(=O)O)NC(=O)[C@@H](NC(=O)[C@H](C)NC(=O)[C@@H](NC(=O)[C@@H](NC(=O)[C@@H](NC(=O)[C@@H](NC(=O)[C@H](CC(=O)O)NC(=O)CNC(=O)[C@H](CO)NC(=O)[C@@H](NC(=O)[C@@H]1CCCN1C(=O)[C@@H](NC(=O)[C@@H](NC(=O)[C@H](CO)NC(=O)[C@@H](NC(=O)[C@H](CC(=O)O)NC(=O)[C@H](CC(C)C)NC(=O)CNC(=O)[C@H](CCCNC(=N)N)NC(=O)[C@H](Cc1ccc(O)cc1)NC(=O)[C@H](Cc1ccc(O)cc1)NC(=O)[C@H](C)NC(=O)[C@@H](NC(=O)[C@H](C)NC(=O)[C@H](CC(N)=O)NC(=O)[C@@H](N)CC(C)C)C(C)C)C(C)C)C(C)C)[C@@H](C)CC)[C@@H](C)O)C(C)C)C(C)C)C(C)C)C(C)C)[C@@H](C)O)[C@@H](C)O)[C@@H](C)O)C(C)C)C(=O)N[C@@H](CC(=O)O)C(=O)N[C@@H](CCCCN)C(=O)N[C@@H](CCCCN)C(=O)N[C@@H](CCCCN)C(=O)O", "values": [
      {"measurement": "solubility in E1E2 buffer (in words)", "setting": "[1]", "value": "much lower solubility"}
    ]},
    {"compound": "GTEGEIPFYGKAIPLEQIKGGRHLIFCHSKKKCDELAAKLTG [TP42] [listing 1 of 2 here]", "values": [
      {"measurement": "Measured Concentration", "setting": "FIG. 6", "value": 0.079, "unit": "mg/mL"},
      {"measurement": "Solubility (%)", "setting": "FIG. 6", "value": 12, "unit": "%"}
    ]},
    {"compound": "GTEGEIPFYGKAIPLEQIKGGRHLIFCHSKKKCDELAAKLTG [TP42] [listing 2 of 2 here]", "values": [
      {"measurement": "visible precipitation in E1E2 buffer", "setting": "[1]; Protocol 1, 1 mg peptide per ml E1E2 buffer, after vortexing and centrifugation at 10,000×g", "value": "precipitation was visible"},
      {"measurement": "solubility in E1E2 buffer (in words)", "setting": "[1]", "value": "much lower solubility"},
      {"measurement": "solubility (in words)", "setting": "[2]", "value": "good solubility"}
    ]},
    {"compound": "GVYLLPRRGPRLGVRATRKTSERSQPRGRRQPIPKARRSEGRSWAQPGYP [TP50-C]", "values": [
      {"measurement": "solubility", "setting": "[1]", "value": "≥ 1000", "unit": "µg/mL"},
      {"measurement": "solubility in E1E2 buffer (in words)", "setting": "[1]", "value": "good solubility"}
    ]},
    {"compound": "ILRRHVGPGEGAVQWMNRLIAFASRGNHVSPTHYVPESDASARVTQIL [TP48]", "values": [
      {"measurement": "solubility (in words)", "setting": "[2]", "value": "good solubility"}
    ]},
    {"compound": "ILRRHVGPGEGAVQWMNRLIAFASRGNHVSPTHYVPESDASARVTQILKKK [TP48-(Lys)3]", "values": [
      {"measurement": "solubility in E1E2 buffer (in words)", "setting": "[1]", "value": "good solubility"}
    ]},
    {"compound": "KGGRHLIFCHSKKKCDELAAKLTGLGLNAVAYYRGLDVSVIP [TP42-2]", "values": [
      {"measurement": "Solubility | Measured", "setting": "[3]", "value": "415 µg/mL and 215 µg/mL and 233 µg/mL"},
      {"measurement": "Solubility | Percent (%)", "setting": "[3]", "value": "83% and 43% and 47%"}
    ]},
    {"compound": "KSTKVPAAYAAQGYKVLVLNPSVAATLGFGAYMSK [TP35-NS3]", "values": [
      {"measurement": "solubility", "setting": "[1]", "value": "≥ 1000", "unit": "µg/mL"},
      {"measurement": "solubility in E1E2 buffer (in words)", "setting": "[1]", "value": "good solubility"}
    ]},
    {"compound": "KSTKVPAAYAAQGYKVLVLNPSVAATLGFGAYMSKKKK [TP35-NS3-(Lys)3]", "values": [
      {"measurement": "solubility in E1E2 buffer (in words)", "setting": "[1]", "value": "good solubility"}
    ]}
  ]
}
